Results from patent US12187717B2, “Compound and use thereof in treating autoimmune diseases” (PARENCHYMA BIOTECH INC., priority 2022, dated 2025).

Columns and labels:
[1] = system: DSS-induced inflammatory bowel disease; experiment: DSS-induced inflammatory bowel disease model: severity index and colon weight:length ratio; assay type: in vivo, C57BL/6 mice; settings: 10 mg/kg oral daily, compared to solvent control
Protocol: On day 0 of the experiment, a 2.0% DSS solution prepared by dissolving DSS (Dextran sulfate sodium, MP biomedicals, Cat No. 160110) in […] was given for drinking to C57BL/6 mice (11 weeks old, female, 20±2 g) for 7 days. The 2.0% DSS solution was changed at an interval of 2 days. Sterile distilled water was provided for drinking from the 8th day of the experiment. Body weight and severity index were measured at an interval of 2 days from the 0th day of the experiment in order to confirm the onset of inflammatory bowel disease.
10 mg/kg of Compound 6 per mouse was completely dissolved in an ethanol-Cremophor EL mixture corresponding to 7.5% (v/v) of the administered dose, and then, was diluted in phosphate buffered saline to prepare the final ethanol:Cremophor EL:phosphate buffered saline (0.375:0.375:9.25, v/v/v), followed by oral administration of 200 μl daily for a total of 14 times from the 1st to 14th days of the experiment. An inflammatory bowel disease severity index was visually observed and recorded at an interval of 2 days according to a severity index system classified into 0 to 10 levels.
Inflammatory bowel disease symptoms were evaluated by summing the scores of three items according to the following items (Table 2).

[2] = system: experimental autoimmune encephalomyelitis (EAE); experiment: Experimental autoimmune encephalomyelitis (EAE) model of multiple sclerosis; assay type: in vivo, C57BL/6 mice; settings: 10 mg/kg oral daily, 15th to 20th days; 21st day; 0-5 stages; solvent control 2.9±1.92
Protocol: On day 0 of the experiment, myelin oligodendrocyte glycoprotein (MOG) 35-55 peptide (MOG35-55, Peptron) (200 μg), heat killed Mmycobacterium tuberculosis, Difco, Cat No. 231141) (500 μg), and an adjuvant (incomplete freund's adjuvant, Sigma Aldrich, Cat No. F5506) were mixed for 7 minutes to form an emulsion. MOG35-55 emulsion was subcutaneously injected into both flanks of C57BL/6 mice (7-8 weeks old, female), respectively, and then 100 μl of pertussis toxin (Sigma Aldrich, Cat No. P2980) (200 ng) was administered into the tail vein. On the 2nd day of the experiment, an equal amount of pertussis toxin was administered intravenously. […]
In the compound 6 administration group according to an embodiment of the present invention, 10 mg/kg of Compound 6 per mouse was completely dissolved in an ethanol-Cremophor EL mixture corresponding to 7.5% (v/v) of the administered dose, and then, was diluted in phosphate buffered saline to prepare the final ethanol:Cremophor EL:phosphate buffered saline (0.375:0.375:9.25, v/v/v), followed by oral administration with 200 μl of the prepared solution daily for a total of 6 times from the 15th to 20th days of the experiment. The multiple sclerosis index was visually observed and recorded in the severity index system classified into 0-5 stages. […]

neutrophilic asthma = experiment: Neutrophilic asthma model (LPS/OVA); assay type: in vivo, C57BL/6 mice; settings: 10 mg/kg oral daily, 27th to 36th days, compared to solvent control
Protocol: Sensitization was induced in C57BL/6 mice (7 weeks old, female) by intranasally administering 10 μg of LPS (lipopolysaccharide, Sigma Aldrich, Cat No. L2630) and 75 μg of OVA (Ovalbumin, Sigma Aldrich, Cat No. A5503) diluted in phosphate buffered saline (20 μl in total) on the 0th, 1st, 2nd and 7th days of the experiment. From the 14th day of the experiment, 50 μg of OVA diluted in phosphate buffered saline was challenged by intranasal administration for a total of 8 times at an interval of 2 days a week until the 36th day. The intranasal administration was performed after anesthesia using an isoflurane inhalation anesthetic. In the compound 6 administration group according to an embodiment of the present invention, 10 mg/kg of Compound 6 per mouse was completely dissolved in an ethanol-Cremophor EL mixture corresponding to 7.5% (v/v) of the administered dose, and then, was diluted in phosphate buffered saline to prepare the final ethanol:Cremophor EL:phosphate buffered saline (0.375:0.375:9.25, v/v/v), followed by oral administration with 200 μl of the prepared solution daily for a total of 10 times from the 27th to the 36th days of the experiment.

CYP1A2 = target: T1, CYP1A2 (Homo sapiens, UniProt P05177); experiment: CYP isoenzyme activity; assay type: in vitro ADME; settings: 10 μM
T1 sequence (P05177 1-516): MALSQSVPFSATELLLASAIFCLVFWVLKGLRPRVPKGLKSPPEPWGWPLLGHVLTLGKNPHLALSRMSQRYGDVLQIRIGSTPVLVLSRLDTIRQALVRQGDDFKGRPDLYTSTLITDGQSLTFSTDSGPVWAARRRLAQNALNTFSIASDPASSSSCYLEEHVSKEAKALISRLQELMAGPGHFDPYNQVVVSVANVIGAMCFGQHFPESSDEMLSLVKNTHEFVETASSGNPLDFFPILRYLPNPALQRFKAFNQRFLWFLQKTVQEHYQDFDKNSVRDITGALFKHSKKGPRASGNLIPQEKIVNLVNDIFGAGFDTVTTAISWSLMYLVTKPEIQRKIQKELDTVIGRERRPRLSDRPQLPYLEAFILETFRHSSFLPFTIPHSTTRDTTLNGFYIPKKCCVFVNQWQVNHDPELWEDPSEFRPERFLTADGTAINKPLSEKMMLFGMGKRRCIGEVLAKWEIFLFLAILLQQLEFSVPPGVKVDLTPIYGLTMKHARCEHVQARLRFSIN

CYP2C9 = CYP2C9 (Homo sapiens, UniProt P11712); experiment: CYP isoenzyme activity; assay type: in vitro ADME; settings: 10 μM
Sequence of CYP2C9 (P11712 whole entry): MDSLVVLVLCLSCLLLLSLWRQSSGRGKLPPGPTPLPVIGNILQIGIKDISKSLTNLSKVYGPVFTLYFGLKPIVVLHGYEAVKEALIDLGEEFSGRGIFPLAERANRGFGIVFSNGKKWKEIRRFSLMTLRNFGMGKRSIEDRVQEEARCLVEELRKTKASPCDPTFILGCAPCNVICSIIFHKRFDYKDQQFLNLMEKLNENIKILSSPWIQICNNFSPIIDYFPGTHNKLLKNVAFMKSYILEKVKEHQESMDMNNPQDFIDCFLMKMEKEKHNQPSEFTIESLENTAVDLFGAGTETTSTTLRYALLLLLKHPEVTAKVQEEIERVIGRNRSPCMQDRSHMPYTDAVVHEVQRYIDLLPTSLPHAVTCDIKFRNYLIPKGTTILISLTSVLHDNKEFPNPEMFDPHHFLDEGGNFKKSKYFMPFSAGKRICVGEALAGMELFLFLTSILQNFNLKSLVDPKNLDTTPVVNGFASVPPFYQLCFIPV

CYP1A2 activity (CYP1A2): 88.2 % of Control Activity | CYP2C9 activity (CYP2C9): 94.5 % of Control Activity
Structure (SMILES): O=C(Cc1c[nH]c2ccc(Cl)cc12)Nc1nc2ccc(N3CCOCC3)cc2s1 [Compound 6, 2-(5-chloro-1H-indol-3-yl)-N-(6-morpholinobenzo[d]thiazol-2-yl)acetamide]
inflammatory bowel disease severity index ([1]; 10th day): statistically significant therapeutic effects | colon weight:length ratio ([1]; 15th day): significantly suppressed | disease severity index (EAE) [2]: 0.92±0.58 | number of neutrophils in the bronchoalveolar lavage (BAL) (neutrophilic asthma): significantly decreased
